Experimental data reported in article PMC3188285 (Journal of Medicinal Chemistry, 2011).

Columns and labels:
[1] = system: HeLa cells; assay: Cytotoxicity assay; format: cell-based, human; conditions: 10, 1, 0.1 and 0.01 μM; 24 or 48 h; triplicate
[2] = system: CREBBP; format: binding, human; conditions: from ΔTm^obs, compound 100 μM

Row | Compound | cytotoxicity in HeLa cells (MTT) [1] | selectivity for CREBBP over the BET bromodomains [2]
1 | CCOc1cc(-c2c(C)noc2C)cc(C(C)O)c1 (racemic) [Compound 4d, (RS)-1-(3-(3,5-Dimethylisoxazol-4-yl)-5-ethoxyphenyl)ethanol] | did not show any cytotoxicity | –
2 | Cc1noc(C)c1-c1ccc2c(c1)CN(C)C(=O)N2 [Compound 1, 6-(3,5-dimethylisoxazol-4-yl)-3-methyl-3,4-dihydroquinazolin-2(1H)-one] | significant cytotoxicity | –
3 | CCOc1cc(C(=O)O)cc(-c2c(C)noc2C)c1 [Compound 4b, 3-(3,5-Dimethylisoxazol-4-yl)-5-ethoxybenzoic acid] | did not show any cytotoxicity | modest
